What was measured:
Assay type in all cases: cell-based
[1] = test system: H3K4me3 mark; test: Histone lysine demethylase immunofluorescence assay, non-transfected U2OS cells; details: Homo sapiens, staining of the H3K4me3 mark, 20 hours incubation with compound
How it was run: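 Non-transfected U2OS cells incubated with compounds 20 h in DMEM/5% FBS. Fixed cells immunostained for H3K4me3 with Hoechst counterstain and imaged by high-throughput microscopy. IC50 based on average cellular H3K4me3 staining.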

[2] = target: T1, KDM6B (Homo sapiens, UniProt O15054); test: Histone lysine demethylase immunofluorescence assay, U2OS cells transfected with KDM6B; details: U2OS cells transfected with pCMVHA KDM6B; mark detected H3K27me2; 20 hours
T1 construct: (a.a. 1026-1682); host or cells: U2OS
T1 sequence (O15054 1026-1682 isoform O15054-1): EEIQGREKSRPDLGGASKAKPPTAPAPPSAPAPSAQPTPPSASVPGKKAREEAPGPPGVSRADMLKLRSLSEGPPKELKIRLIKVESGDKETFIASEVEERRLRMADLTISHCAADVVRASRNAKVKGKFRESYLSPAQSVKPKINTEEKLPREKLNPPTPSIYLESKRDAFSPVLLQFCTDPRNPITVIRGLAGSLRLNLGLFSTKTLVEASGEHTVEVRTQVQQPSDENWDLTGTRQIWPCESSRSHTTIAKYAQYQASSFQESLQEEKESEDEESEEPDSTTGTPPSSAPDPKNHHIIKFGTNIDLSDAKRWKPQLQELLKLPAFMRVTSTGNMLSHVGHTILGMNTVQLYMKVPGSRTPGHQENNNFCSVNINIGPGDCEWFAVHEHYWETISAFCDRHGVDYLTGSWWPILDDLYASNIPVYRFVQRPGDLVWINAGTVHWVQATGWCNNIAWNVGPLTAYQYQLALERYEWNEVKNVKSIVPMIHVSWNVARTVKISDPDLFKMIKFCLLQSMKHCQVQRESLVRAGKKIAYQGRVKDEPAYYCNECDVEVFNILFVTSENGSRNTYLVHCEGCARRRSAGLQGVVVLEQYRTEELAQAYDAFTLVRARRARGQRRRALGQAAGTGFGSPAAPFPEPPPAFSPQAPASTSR
Description: (§1) U2OS cells were seeded 24 hours before transfection. Transfection was performed with Fugene HD transfection reagent as recommended by the manufacturer. 6 hours after transfection, the cells were harvested and seeded into multi well plates into media containing compound. The media used was DMEM containing 10% FBS and pen/strep. 20 hours after incubation of cells with compounds, the cells were washed in PBS, harvested by fixation with formaldehyde 4% aqueous solution, and washed in PBS. Subsequently, the cells were permeabilized in PBS with 0.2% Triton X-100 for. Blocking was performed in PBS with 0.2% Triton X-100 and 5% FBS. The cells were incubated with primary antibodies in blocking solution over night at 4° C. The primary antibodies used in the assays were HA.11 (Covance, MMS-101P) and the antibody detecting the mark specified in the table below. After incubation with primary antibodies, the cells were washed with PBS, incubated with secondary antibodies (Alexa fluor 594 goat anti rabbit IgG, Invitrogen, A11012; Alexa flour 488 donkey anti mouse IgG, Invitrogen, A21202) and Hoechst, (Sigma, 33342) in blocking solution, and washed again with PBS. Finally, PBS was added and high throughput imaging and analysis were performed by an IN Cell Analyzer 1000 (GE Healthcare). The robot software analyzed individual cells and divided these into HA+ (transfected cells) and HA− (non-transfected cells). The IC50 values were based on an average measure of the staining of the mark specified in the table below in the transfected cells.

[3] = target: T2, KDM4A (Homo sapiens, UniProt O75164); test: Histone lysine demethylase immunofluorescence assay, U2OS cells transfected with KDM4A; details: U2OS cells transfected with pCMVHA KDM4A; mark detected H3K9me3; 20 hours
T2 construct: Full length; host or cells: U2OS
T2 sequence (O75164 1-1064): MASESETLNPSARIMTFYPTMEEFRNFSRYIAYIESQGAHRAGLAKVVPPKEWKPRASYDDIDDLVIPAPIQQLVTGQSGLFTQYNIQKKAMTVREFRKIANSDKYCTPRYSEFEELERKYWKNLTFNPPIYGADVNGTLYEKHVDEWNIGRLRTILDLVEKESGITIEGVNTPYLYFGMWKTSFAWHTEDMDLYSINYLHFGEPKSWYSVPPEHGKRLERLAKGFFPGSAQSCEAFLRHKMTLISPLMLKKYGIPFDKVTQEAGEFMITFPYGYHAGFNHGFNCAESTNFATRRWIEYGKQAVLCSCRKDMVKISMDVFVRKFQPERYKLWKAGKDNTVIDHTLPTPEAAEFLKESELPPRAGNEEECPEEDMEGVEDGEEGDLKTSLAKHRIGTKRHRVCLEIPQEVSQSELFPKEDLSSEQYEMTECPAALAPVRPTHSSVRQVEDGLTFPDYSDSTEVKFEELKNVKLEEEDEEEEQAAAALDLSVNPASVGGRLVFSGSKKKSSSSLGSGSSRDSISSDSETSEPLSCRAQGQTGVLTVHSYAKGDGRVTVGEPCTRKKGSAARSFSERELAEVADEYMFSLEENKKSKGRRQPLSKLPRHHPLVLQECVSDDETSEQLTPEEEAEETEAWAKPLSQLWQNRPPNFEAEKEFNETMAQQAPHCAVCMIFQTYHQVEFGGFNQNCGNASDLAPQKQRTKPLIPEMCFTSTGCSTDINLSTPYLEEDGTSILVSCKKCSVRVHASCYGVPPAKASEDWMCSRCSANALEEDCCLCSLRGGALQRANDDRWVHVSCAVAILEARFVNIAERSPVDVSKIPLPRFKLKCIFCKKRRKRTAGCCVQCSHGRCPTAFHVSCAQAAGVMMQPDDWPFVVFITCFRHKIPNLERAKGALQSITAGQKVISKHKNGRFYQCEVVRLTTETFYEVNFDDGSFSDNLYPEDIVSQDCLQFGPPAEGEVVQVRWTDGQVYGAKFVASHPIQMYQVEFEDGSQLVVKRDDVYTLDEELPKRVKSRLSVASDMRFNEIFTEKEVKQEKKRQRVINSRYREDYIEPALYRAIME
Description: as §1

Row | SMILES | IC50 [1] [nM] | IC50 [2] [nM] | IC50 [3] [nM]
1 | CCN(CCN(C)C)C(=O)CNCc1cc(CN)ccn1 [Compound 4, 2-({[4-(aminomethyl)pyridin-2-yl]methyl}amino)-N-[2-(dimethylamino)ethyl]-N-ethylacetamide] | < 250 | > 2500 | –
2 | COc1ccccc1CN1CCC(NC(=O)CNCc2cc(CN)ccn2)CC1 [Compound 9, 2-({[4-(aminomethyl)pyridin-2-yl]methyl}amino)-N-{1-[(2-methoxyphenyl)methyl]-piperidin-4-yl}acetamide] | 250 to 2500 | – | > 2500
3 | CN(C)CCNCc1ccnc(CNCC(=O)N(C)C)c1 [Compound 15, 2-({[4-({[2-(dimethylamino)ethyl]-amino}methyl)pyridin-2-yl]methyl}amino)-N,N-dimethylacetamide] | – | – | > 2500
4 | CNC(C#N)c1ccnc(CNCCCN(C)C)c1 (stereo not drawn) [Compound 24, 2-[2-({[3-(dimethylamino)propyl]-amino}methyl)pyridin-4-yl]-2-(methylamino)-acetonitrile] | < 250 | > 2500 | –
5 | CN(C)C(=O)CNCc1cc(/C=N/CCC2CCCCC2)ccn1 [Compound 36, 2-[({4-[[(2-cyclohexylethyl)imino]-methyl]pyridin-2-yl}methyl)amino]-N,N-dimethylacetamide] | < 250 | – | > 2500
6 | CN(CCCNCc1cc(/C=N/C2CC2)ccn1)Cc1ccccc1 [Compound 41, N-({2-[({3-[benzyl(methyl)amino]-propyl}amino)methyl]-pyridin-4-yl}methylidene)-cyclopropanamine] | – | – | > 2500
7 | C(=N/C1CC1)/c1ccnc(CNCCCN2CCCC2)c1 [Compound 42, N-{[2-({[3-(pyrrolidin-1-yl)propyl]amino}-methyl)pyridin-4-yl]methylidene}-cyclopropanamine] | – | > 2500 | > 2500
8 | O=C(CNCc1cc(/C=N/C2CC2)ccn1)NC1CCN(Cc2ccccc2)C1 (stereo not drawn) [Compound 53, N-(1-benzylpyrrolidin-3-yl)-2-[({4-[N-cyclopropyl-carboximidoyl]pyridin-2-yl}methyl)amino]-acetamide] | – | – | > 2500
9 | CCN(CCN(C)C)C(=O)CNCc1cc(C=O)ccn1 [Compound 101] | < 250 | > 2500 | 250 to 2500
10 | O=Cc1ccnc(CNCC(=O)N2CCC[C@@H]2CN2CCCC2)c1 [Compound 102, 2-[({2-oxo-2-[(2R)-2-(pyrrolidin-1-ylmethyl)pyrrolidin-1-yl]ethyl}amino)-methyl]pyridine-4-carbaldehyde] | – | – | 250 to 2500
11 | CCN(CC)CCCCNCc1cc(C=O)ccn1 [Compound 107, 2-({[4-(diethylamino)-butyl]amino}-methyl)pyridine-4-carbaldehyde] | < 250 | > 2500 | –
12 | O=Cc1ccnc(CNCCCN2CCCC2)c1 [Compound 111, 2-({[3-(pyrrolidin-1-yl)propyl]amino}-methyl)pyridine-4-carbaldehyde] | < 250 | – | > 2500

Now from value to molecule:

Row | IC50 [1] [nM] | IC50 [2] [nM] | IC50 [3] [nM] | SMILES
13 | 250 to 2500 | – | 250 to 2500 | CN(C)C(=O)CNCc1cc(CNCC#N)ccn1 [Compound 13, 2-{[(4-{[(cyanomethyl)amino]-methyl}pyridin-2-yl)methyl]amino}-N,N-dimethylacetamide]
14 | < 250 | > 2500 | 250 to 2500 | CCN(CCN(C)C)C(=O)CNCc1cc(CNC(=O)C(F)(F)F)ccn1 [Compound 25, N-[(2-{[({[2-(dimethylamino)ethyl]-(ethyl)carbamoyl}-methyl)amino]methyl}-pyrtdin-4-yl)methyl]-2,2,2-trifluoroacetamide]
15 | < 250 | – | < 250 | CN(C)CC1CCC(CNCc2cc(/C=N/C3CC3)ccn2)CC1 (stereo not drawn) [Compound 46, N-[(2-{[({4-[(dimethylamino)-methyl]cyclohexyl}-methyl)amino]-methyl}pyridin-4-yl)methylidene]-cyclopropanamine]
16 | – | – | 250 to 2500 | CCN(CC)CCCCNCc1cc(/C=N/CCOC)ccn1 [Compound 60, [4-(diethylamino)butyl]-({4-[[(2-methoxyethyl)imino]-methyl]pyridin-2-yl}methyl)amine]
17 | < 250 | > 2500 | < 250 | CCN(CCN(C)C)C(=O)CNCc1cc(C2OCC(Cc3ccccc3)CN2C(=O)C(F)(F)F)ccn1 (stereo not drawn) [Compound 90, 2-[({4-[5-benzyl-3-(trifluoroacetyl)-1,3-oxazinan-2-yl]pyridin-2-yl}methyl)amino]-N-[2-(dimethylamino)-ethyl]-N-ethylacetamide]
18 | < 250 | > 2500 | < 250 | CCN(CCN(C)C)C(=O)CNCc1cc(C2OCC3(CC3)CN2C(=O)C(F)(F)F)ccn1 (stereo not drawn) [Compound 91, N-[2--(dimethylamino)-ethyl]-N-ethyl-2-[({4-[7-(trifluoroacetyl)-5-oxa-7-azaspiro[2.5]-octan-6-yl]pyridin-2-yl}methyl)amino]-acetamide]
19 | – | – | < 250 | CN(C)C/C=C/CNCc1cc(C=O)ccn1 [Compound 98, 2-({[(2E)-4-(dimethylamino)but-2-en-1-yl]amino}-methyl)pyridine-4-carbaldehyde]
